Experimental data: patent publication US7678789B2, “[1,2,4]-dithiazoli(di)ne derivatives, inducers of gluthathione-S-transferase and NADPH quinone oxido-reductase, for prophylaxis and treatment of adverse conditions associated with cytotoxicity in general and apoptosis in particular” (Solvay Pharmaceuticals B.V., priority 2005, dated 2010)

What was measured:
[1] = system: gluthathione-S-transferase (GST, EC 2.5.1.18); assay: Spectrophotometric determination of EC 2.5.1.18 (GST) induction in PC-12 cells; format: cell-based; conditions: Rat PC-12 cells, 24 hours incubation; negative logarithm of molar concentration causing 50% induction of enzyme activity; CDNB and GSH substrates
Description: Spectrophotometric Determination of EC 2.5.1.18 (GST) Induction
Rat PC-12 cells are incubated for 24 hours with a test compound. GST activity is measured using 1-chloro-2,4-dinitrobenzene (CDNB) and gluthathine (GSH) as substrates. The enzyme catalyses the reaction converting these substrates into S-(2,4-dinitrophenyl)glutathione, which product is measured spectrophotometrically at 340 nm. The effect of the test compound is expressed as pEC50: the negative logarithm of the molar concentration of the compound which causes 50% induction of the enzyme activity. Also the maximal percentage enzyme induction is determined. (see Drukarch et al. “Anethole dithiolethione prevents oxidative damage in gluthathione-depleted astrocytes”, Eur. J. Pharmacol. 329, 259-262, 1997).

[2] = system: NAD(P)H: oxidoreductase (NQO, EC 1.6.99.2); assay: Spectrophotometric determination of EC 1.6.99.2 (NQO) induction in PC-12 cells; format: cell-based; conditions: Rat PC-12 cells, 24 hours incubation; negative logarithm of molar concentration causing same half maximal induction as reference compound D3T; menadione/MTT
Description: Spectrophotometric Determination of EC 1.6.99.2 (NQO) Induction
Rat PC-12 cells are incubated for 24 hours with a test compound. NAD(P)H: oxidoreductase (NQO, EC 1.6.99.2) activity is measured using menadione as substrate and MTT as readout compound. The formation of formazan from MTT is measured spectrophotometrically at 540 nm. The percentage stimulation (PS) relative to the maximal effect of the reference compound D3T is calculated. The maximal percentage stimulation with the concentration which induced the maximal percentage as condition and the pEA50 value (the negative logarithm of the molar concentration of the compound which caused the same half maximal induction of the enzyme activity as the reference compound D3T) are recorded (see Murphy et al., “Enhanced NAD(P)H:Quinone reductase activity defenses in neuronal cells prevents free radical-mediated damage”, J. Neurochem., 71 69-77, 1998 and Prochaska et al., Analytical Biochemistiy, 169, 328-336 1988).

| SMILES | GST pEC50 [1] | melting point | NQO pEA50 [2] |
| --- | --- | --- | --- |
| CCCCc1ccc(N=c2nc(N(C)C)ss2)cc1 [Compound A2] | 5.2 | 81 to 82.5 °C | 5.2 |
| CN(C)c1nc(=Nc2ccc([N+](=O)[O-])cc2)ss1 [Compound A10] | 5.4 | 170 to 171.5 °C | 5.8 |

The next lines start with results.

| GST pEC50 [1] | melting point | SMILES | NQO pEA50 [2] |
| --- | --- | --- | --- |
| 5.3 | 217 to 226 °C | Cc1cccc(N=c2nc(N3CCOCC3)ss2)c1 [Compound B5] | 5.7 |
| 5.8 | 80 to 82 °C | CN=c1ssc(=Nc2ccccc2)n1C [Compound C2] | 6.2 |
| 5.8 | 100 to 101.4 °C | CN=c1ssc(=Nc2ccccc2C)n1C [Compound C3] | 5.7 |
| 5.6 | 76.5 to 77.6 °C | CN=c1ssc(=Nc2cccc(F)c2)n1C [Compound C11] | 5.3 |
